The target in experiment [1] is T1, GCN2 (Homo sapiens, UniProt Q9P2K8). The experiment can be described thus: GCN2 enzyme assay (TR-FRET Lanthascreen, GFP-eIF2alpha phosphorylation). To be noted: 10 μM ATP, 80 nM GFP-eIF2a, 30 nM GCN2. The format is biochemical. Put shortly: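 Kinase reaction with 10 μM ATP and 80 nM GFP-labelled eIF2alpha substrate at room temperature, stopped with EDTA. Phospho-eIF2alpha detected by TR-FRET between antibody and GFP-substrate, excitation at 340 nm.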
In general terms: Time-resolved FRET reads energy transfer from a long-lived donor to a nearby acceptor.
Target sequence in this assay (Q9P2K8 whole entry, species assumed): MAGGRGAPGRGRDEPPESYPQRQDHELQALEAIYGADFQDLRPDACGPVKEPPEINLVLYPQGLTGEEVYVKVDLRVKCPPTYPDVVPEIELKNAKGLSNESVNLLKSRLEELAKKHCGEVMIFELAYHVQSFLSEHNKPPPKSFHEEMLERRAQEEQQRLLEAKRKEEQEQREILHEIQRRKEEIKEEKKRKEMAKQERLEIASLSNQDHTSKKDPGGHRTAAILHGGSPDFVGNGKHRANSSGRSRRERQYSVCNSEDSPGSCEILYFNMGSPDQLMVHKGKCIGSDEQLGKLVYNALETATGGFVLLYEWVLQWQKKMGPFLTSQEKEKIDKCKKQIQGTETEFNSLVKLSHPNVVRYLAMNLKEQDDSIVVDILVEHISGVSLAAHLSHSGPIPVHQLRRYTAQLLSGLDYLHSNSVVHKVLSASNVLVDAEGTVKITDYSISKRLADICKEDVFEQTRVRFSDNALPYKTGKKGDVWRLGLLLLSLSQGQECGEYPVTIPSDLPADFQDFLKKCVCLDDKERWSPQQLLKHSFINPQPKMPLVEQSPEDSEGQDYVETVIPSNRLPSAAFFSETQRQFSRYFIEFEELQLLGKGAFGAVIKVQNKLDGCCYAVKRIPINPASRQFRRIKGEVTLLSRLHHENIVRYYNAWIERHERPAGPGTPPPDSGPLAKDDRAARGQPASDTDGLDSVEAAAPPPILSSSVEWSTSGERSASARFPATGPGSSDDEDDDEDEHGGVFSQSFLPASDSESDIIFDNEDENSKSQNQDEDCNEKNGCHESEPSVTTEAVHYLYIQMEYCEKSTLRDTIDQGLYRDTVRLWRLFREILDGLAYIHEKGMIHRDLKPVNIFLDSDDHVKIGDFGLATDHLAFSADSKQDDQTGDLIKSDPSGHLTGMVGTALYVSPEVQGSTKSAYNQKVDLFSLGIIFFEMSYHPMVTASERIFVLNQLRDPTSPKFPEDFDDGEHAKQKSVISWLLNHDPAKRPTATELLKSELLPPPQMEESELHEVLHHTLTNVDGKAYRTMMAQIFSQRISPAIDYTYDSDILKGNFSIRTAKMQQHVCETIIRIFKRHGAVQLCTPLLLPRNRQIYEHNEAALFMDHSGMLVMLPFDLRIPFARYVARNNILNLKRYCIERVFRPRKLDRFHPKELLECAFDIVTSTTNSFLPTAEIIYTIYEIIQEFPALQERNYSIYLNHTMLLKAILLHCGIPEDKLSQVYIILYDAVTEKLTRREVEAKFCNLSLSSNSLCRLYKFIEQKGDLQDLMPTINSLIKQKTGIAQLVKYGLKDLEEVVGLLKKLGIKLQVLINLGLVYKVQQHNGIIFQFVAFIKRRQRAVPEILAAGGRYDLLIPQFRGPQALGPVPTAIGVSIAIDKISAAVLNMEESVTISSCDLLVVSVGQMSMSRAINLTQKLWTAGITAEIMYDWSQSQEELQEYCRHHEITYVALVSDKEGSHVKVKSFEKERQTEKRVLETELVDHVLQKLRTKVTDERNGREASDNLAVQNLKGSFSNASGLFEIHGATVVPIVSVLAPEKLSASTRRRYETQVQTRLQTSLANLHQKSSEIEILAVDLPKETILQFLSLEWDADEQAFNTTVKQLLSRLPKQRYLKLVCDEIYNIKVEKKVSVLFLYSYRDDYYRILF

The target of experiment [2] is T1, GCN2. As to the kind of experiment: Cellular assay of GCN2 activity (phospho-eIF2alpha immunocytochemistry after tryptophanol). The experiment is classed as cell-based. On the set-up: endogenous in cells; host or cells: U2OS. Particulars: Human U2OS cells, 2 h compound, 600 μM tryptophanol 30 min. Here is the method: Cellular Assay for the Determination of Compound Activities
Human U2OS cells (2000 cells/well) are seeded into 384-well plates and incubated for 20 hours.
The next day, the cells are treated with the test compounds and incubated for 2 hours. Then, tryptophanol, at a final concentration of 600 μM, is added to the cells and those are incubated for 30 minutes.
The analysis of cellular GCN2 activities is done by immunocytochemistry.
Briefly, cells are fixated on the well surfaces by formaldehyde and permeabilised with Triton X-100.
The analysis and quantification of phosphorylated GCN2 is done by scanning the plates in the Acumen Explorer system (TTPLabtech). The obtained data are normalised against the untreated control wells (DMSO only) and expressed as % effect values. The determination of IC50 values is done by using the Graph Pad Prism software.
Target sequence in this assay (Q9P2K8 whole entry): as the sequence (Q9P2K8 whole entry, species assumed) above

Experiment [3] deals with GSK3α(h) (Homo sapiens, UniProt P49840). The experiment can be described thus: GSK3α radiometric kinase assay (33P-ATP, phospho GS2 peptide). The experiment is classed as biochemical. Particulars: read-out: IC50 GSK3α (enzyme assay). Here is the method: GSK3α(h) is incubated with 8 mM MOPS pH 7,0, 0,2 mM EDTA, 20 μM
GSK3α(h), sequence (P49840 whole entry): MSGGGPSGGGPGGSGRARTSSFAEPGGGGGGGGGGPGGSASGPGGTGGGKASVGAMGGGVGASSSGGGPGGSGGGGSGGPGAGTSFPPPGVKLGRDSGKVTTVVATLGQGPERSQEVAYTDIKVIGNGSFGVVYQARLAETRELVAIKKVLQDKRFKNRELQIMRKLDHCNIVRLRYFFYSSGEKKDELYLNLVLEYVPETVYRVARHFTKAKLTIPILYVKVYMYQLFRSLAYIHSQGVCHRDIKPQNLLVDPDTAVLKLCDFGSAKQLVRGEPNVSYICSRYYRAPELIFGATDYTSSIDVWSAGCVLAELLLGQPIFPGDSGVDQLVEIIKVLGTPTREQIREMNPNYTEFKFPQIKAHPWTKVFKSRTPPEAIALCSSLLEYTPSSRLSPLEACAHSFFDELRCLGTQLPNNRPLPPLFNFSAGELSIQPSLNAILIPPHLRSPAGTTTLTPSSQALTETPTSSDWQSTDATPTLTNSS
[…](p)EDEEE (phosphor GS2 peptide), 10 mM Mg-acetate and [gamma-33P-ATP](specific activity approx. 500 cpm/Pmol, concentration as required). The reaction is initiated by the addition of the MgATP. After incubation for 40 minutes at the room temperature, the Reaction is stopped by the addition of 3% phosphoric acid solution. 10 μL of reaction is then spotted onto a P30 filtermat and washed three times for 5 minutes in 50 mM phosphoric acid and once in methanol prior to drying and scintillation counting.

As a reminder, the IC50 is the concentration at which inhibition is half-maximal.

On to `Cn1cc(-c2ccc(-n3nnc4cnc(N[C@H]5CC[C@H](O)C5)nc43)cc2)cn1` (relative stereo) [A51, trans-3-{3-[4-(1-methyl-1H-pyrazol-4-yl)-phenyl]-3H-[1,2,3]triazolo[4,5-d]pyrimidin-5-ylamino}-cyclopentanol], for which the half-inhibitory concentration (IC50) in experiment [1] was under 1 µM; in experiment [2], 1 to 5 µM.

Turning to `OCCn1cc(-c2ccc(-n3nnc4cnc(N[C@H]5CC[C@H](O)C5)nc43)cc2)cn1` (relative stereo) [A57, trans-3-(3-{4-[1-(2-hydroxy-ethyl)-1H-pyrazol-4-yl]-phenyl}-3H-[1,2,3]triazolo[4,5-d]pyrimidin-5-ylamino)-cyclopentanol], the results for the IC50 in experiment [1] and in experiment [2] were under 1 µM and 1 to 5 µM, respectively.

On to `O[C@@H]1CC[C@@H](Nc2ncc3nnn(-c4ccc(OC[C@H](O)C(F)(F)F)cc4)c3n2)C1` (stereo in doubt) [A205, (trans)-3-{3-[4-((S)-3,3,3-trifluoro-2-hydroxy-propoxy)-phenyl]-3H-[1,2,3]triazolo[4,5-d]pyrimidin-5-ylamino}-cyclopentanol], for which the figures for the IC50 in experiment [1] and in experiment [2] were under 1 µM and 5 to 10 µM, respectively.

As for `COc1ccc(-n2nnc3cnc(NC4CC4)nc32)cc1` [A4, cyclopropyl-[3-(4-methoxy-phenyl)-3H-[1,2,3]triazolo[4,5-d]pyrimidin-5-yl]-amine], the IC50 in experiment [1] and in experiment [2] was under 1 µM in each case.

For `COc1ccc(-n2nnc3cnc(NC4CCN(C(=O)CCN(C)C)CC4)nc32)cc1` [A49, 3-dimethylamino-1-{4-[3-(4-methoxy-phenyl)-3H-[1,2,3]triazolo[4,5-d]pyrimidin-5-ylamino]-piperidin-1-yl}-propan-1-one], the IC50 in experiment [1] was under 1 µM; in experiment [2], 5 to 10 µM.

Turning to `COCCn1cc(-c2ccc(-n3nnc4cnc(N[C@H]5CC[C@H](N)CC5)nc43)cc2)cn1` [A52, N-(3-{4-[1-(2-methoxy-ethyl)-1H-pyrazol-4-yl]-phenyl}-3H-[1,2,3]triazolo[4,5-d]-pyrimidin-5-yl)-cyclohexane-1,4-diamine], the IC50 was under 1 µM in experiment [1] and 1 to 5 µM in experiment [2].

For `N[C@H]1CC[C@H](Nc2ncc3nnn(-c4ccc(N5CCOCC5)cc4)c3n2)CC1` [A64, N-[3-(4-morpholin-4-yl-phenyl)-3H-[1,2,3]triazolo[4,5-d]pyrimidin-5-yl]-cyclohexane-1,4-diamine], the figures for the IC50 in experiment [1] and in experiment [2] were under 1 µM and 1 to 5 µM, respectively.

Regarding `N[C@H]1CC[C@H](Nc2ncc3nnn(-c4ccc(N5CC[C@@H](O)C5)cc4)c3n2)CC1` [A70, (R)-1-{4-[5-((trans)-4-amino-cyclohexylamino)-[1,2,3]triazolo[4,5-d]pyrimidin-3-yl]-phenyl}-pyrrolidin-3-ol], the 50% inhibitory concentration (IC50) was under 1 µM in experiment [1] and 5 to 10 µM in experiment [2].

For the compound `Cn1cc(-c2ccc(-n3nnc4cnc(N[C@@H]5CCNC5)nc43)cc2)cn1` [A116, {3-[4-(1-methyl-1H-pyrazol-4-yl)-phenyl]-3H-[1,2,3]triazolo[4,5-d]pyrimidin-5-yl}-(R)-pyrrolidin-3-yl-amine], the figures for the IC50 in experiment [1] and in experiment [2] were under 1 µM and 5 to 10 µM, respectively.

Regarding `N[C@H]1CC[C@H](Nc2ncc3nnn(-c4ccc(N5CC[C@H](O)C5)cc4)c3n2)CC1` [A128, (S)-1-{4-[5-(4-amino-cyclohexylamino)-[1,2,3]triazolo[4,5-d]pyrimidin-3-yl]-phenyl}-pyrrolidin-3-ol], the IC50 in experiment [1] is under 1 µM; in experiment [2], 5 to 10 µM.

As to `COCC(COC)Oc1ccc(-n2nnc3cnc(N[C@@H]4CC[C@@H](C(N)=O)C4)nc32)cc1` [A167, (1R,3R)-3-{3-[4-(2-methoxy-1-methoxymethyl-ethoxy)-phenyl]-3H-[1,2,3]triazolo[4,5-d]pyrimidin-5-ylamino}-cyclopentanecarboxylic acid amide], the IC50 in experiment [1] is under 1 µM; in experiment [2], 1 to 5 µM.

In the case of `NC(=O)[C@@H]1CC[C@@H](Nc2ncc3nnn(-c4ccc(OC5CCOCC5)cc4)c3n2)C1` [A168, (1R,3R)-3-{3-[4-(tetrahydro-pyran-4-yloxy)-phenyl]-3H-[1,2,3]triazolo[4,5-d]-pyrimidin-5-ylamino}-cyclopentanecarboxylic acid amide], the IC50 is under 1 µM in experiment [1] and 1 to 5 µM in experiment [2].

In the case of `NC(=O)[C@@H]1CC[C@@H](Nc2ncc3nnn(-c4ccc(I)cc4)c3n2)C1` [A170, (1R,3R)-3-[3-(4-iodo-phenyl)-3H-[1,2,3]triazolo[4,5-d]pyrimidin-5-ylamino]-cyclopentanecarboxylic acid amide], the half-maximal inhibitory concentration (IC50) was under 1 µM in experiment [1] and 1 to 5 µM in experiment [2].

Take `Cn1cc2ccc(-n3nnc4cnc(N[C@@H]5CC[C@@H](C(N)=O)C5)nc43)cc2n1` [A185, (1R,3R)-3-[3-(2-methyl-2H-indazol-6-yl)-3H-[1,2,3]triazolo[4,5-d]pyrimidin-5-ylamino]-cyclopentanecarboxylic acid amide]: the IC50 in experiment [1] was under 1 µM; in experiment [2], 5 to 10 µM.

On to `Cn1cc2cc(-n3nnc4cnc(N[C@@H]5CC[C@@H](C(N)=O)C5)nc43)ccc2n1` [A186, (1R,3R)-3-[3-(2-methyl-2H-indazol-5-yl)-3H-[1,2,3]triazolo[4,5-d]pyrimidin-5-ylamino]-cyclopentanecarboxylic acid amide], for which the figures for the IC50 in experiment [1] and in experiment [2] were under 1 µM and 1 to 5 µM, respectively.

`Cc1ccc2cc(-n3nnc4cnc(N[C@@H]5CC[C@H](C(N)=O)C5)nc43)ccc2n1` [A191, (1S,3R)-3-[3-(2-methyl-quinolin-6-yl)-3H-[1,2,3]triazolo[4,5-d]pyrimidin-5-ylamino]-cyclopentanecarboxylic acid amide]: the concentration for half-maximal inhibition (IC50) was under 1 µM in experiment [1] and 1 to 5 µM in experiment [2].

For the compound `Cc1ccc2cc(-n3nnc4cnc(N[C@@H]5CC[C@@H](O)C5)nc43)ccc2n1` [A208, (1R,3R)-3-[3-(2-methyl-quinolin-6-yl)-3H-[1,2,3]triazolo[4,5-d]pyrimidin-5-ylamino]-cyclopentanol], the results for the half-inhibitory concentration (IC50) in experiment [1] and in experiment [2] were under 1 µM and 1 to 5 µM, respectively.

Take `O=c1cccnn1CCn1cc(-c2ccc(-n3nnc4cnc(N[C@@H]5CC[C@@H](O)C5)nc43)cc2)cn1` [A236, 2-[2-(4-{4-[5-((1R,3R)-3-hydroxy-cyclopentylamino)-[1,2,3]triazolo[4,5-d]-pyrimidin-3-yl]-phenyl}-pyrazol-1-yl)-ethyl]-2H-pyridazin-3-one]: the figures for the IC50 in experiment [1] and in experiment [2] were under 1 µM and 5 to 10 µM, respectively.

For the compound `COc1ccc(-n2nnc3cnc(N[C@@H]4CC[C@@H](C(=O)N(C)C)C4)nc32)cc1` [A243, (1R,3R)-3-[3-(4-methoxy-phenyl)-3H-[1,2,3]triazolo[4,5-d]pyrimidin-5-ylamino]-cyclo pentanecarboxylic acid dimethylamide], the concentration for half-maximal inhibition (IC50) is under 1 µM in experiment [1] and 1 to 5 µM in experiment [2].

With `CCOc1ccc(-n2nnc3cnc(N[C@@H]4CC[C@@H](C(=O)N(C)CC(C)(C)O)C4)nc32)cc1` [A251, (1R,3R)-3-[3-(4-ethoxy-phenyl)-3H-[1,2,3]triazolo[4,5-d]pyrimidin-5-ylamino]-cyclopentanecarboxylic acid (2-hydroxy-2-methyl-propyl)-methyl-amide], the IC50 was under 1 µM in experiment [1] and 5 to 10 µM in experiment [2].

With `Cc1ccc2cc(-n3nnc4cnc(N[C@@H]5CC[C@@H](C(=O)NCCC(C)(C)O)C5)nc43)ccc2n1` [A253, (1R,3R)-3-[3-(2-methyl-quinolin-6-yl)-3H-[1,2,3]triazolo[4,5-d]pyrimidin-5-ylamino]-cyclopentanecarboxylic acid (3-hydroxy-3-methyl-butyl)-amide], the concentration for half-maximal inhibition (IC50) in experiment [1] and in experiment [2] was under 1 µM in each case.

For the compound `N[C@H]1CC[C@H](Nc2ncc3nnn(-c4ccc(-c5cnn(CCO)c5)cc4)c3n2)CC1` [A256, 2-(4-{4-[5-(trans-4-amino-cyclohexylamino)-[1,2,3]triazolo[4,5-d]pyrimidin-3-yl]-phenyl}-pyrazol-1-yl)-ethanol], the IC50 in experiment [1] was under 1 µM; in experiment [2], 5 to 10 µM.

For `Cn1cc(-c2ccc(-n3nnc4cnc(N[C@@H]5CCN(C(=O)CCCN6CCNCC6)C5)nc43)cc2)cn1` [A271, 1-((R)-3-{3-[4-(1-methyl-1H-pyrazol-4-yl)-phenyl]-3H-[1,2,3]triazolo[4,5-d]pyrimidin-5-ylamino}-pyrrolidin-1-yl)-4-piperazin-1-yl-butan-1-one], the IC50 in experiment [3] and in experiment [1] was under 1 µM in each case.

With `NC(=O)[C@@H]1CC[C@@H](Nc2ncc3nnn(-c4ccc(O)cc4)c3n2)C1` [A276, (1R,3R)-3-[3-(4-hydroxy-phenyl)-3H-[1,2,3]triazolo[4,5-d]pyrimidin-5-ylamino]-cyclopentanecarboxylic acid amide], the IC50 in experiment [1] is under 1 µM; in experiment [2], 5 to 10 µM.

(Values after patent publication US9855268B2, “Triazolo[4,5-d]pyrimidine derivatives” (Merck Patent GmbH, priority 2013, dated 2018).)
